Measurements from US20240293304A1, “SULFONATE-FUNCTIONALIZED ALKYL POLYGLUCOSIDES AS SULFATE-FREE SURFACTANTS FOR TOOTHPASTE AND MOUTHWASH” (Colonial Chemical, Inc., priority 2021, published 2024).

How the values were obtained:
[1] = test system: gingival tissues (MatTek EpiGingival); assay: MatTek EpiGingival in vitro gingival irritation potential; assay type: cell-based; details: 2% SLS
Source text: Suga®Nate 160NC has been tested for its oral and gingival irritation potential in vitro (MatTek EpiOral™ & EpiGingival™). […] Taken together, the results reveal that Suga®Nate 160NC, even as a neat product, is less irritating to oral and gingival tissues than 2% SLS.

[2] = test system: In vitro epidermal keratinocytes; assay type: cell-based

Compound | ET-50 [1] | gingival irritation [1] | eye irritation classification [2] | ET-50 [2]
CCCCCCCCCCCCOS(=O)(=O)[O-].[Na+] [SLS] | 418.2 min | resulted in gingival irritation | – | –
sorbitan oleate decylglucoside crosspolymer [Poly Suga®Mulse D9] | – | – | non-irritating | –
sodium hydroxypropylsulfonate laurylglucoside crosspolymer [Poly Suga®Nate 160P NC] | – | – | non-irritating | ≥ 256 min
